Results on 6 compounds are retold here after PMC11719724, “Antimicrobial Peptides from Porcine Blood Cruor Hydrolysates as a Promising Source of Antifungal Activity” (Foods, 2024).

Where no end group is shown, it is not given here.

In test [1] the test system is Paecilomyces spp. 5332-9a. The class given is cell-based. The following applies: Figure 1 pictures C,D; peptides 2.5 mM, natamycin 50 µg/mL, 80 µL per well; 25 °C, 48 h. The protocol:
(§1) The sixteen peptides were initially tested using the agar well diffusion method against the indicator strains E. coli, L. ivanovii, R. mucilaginosa, and Paecilomyces spp., as previously described in [22]. To perform this procedure, 25 µL of the prepared culture suspension (adjusted to 10^6 CFU/mL for bacteria and yeasts and 10^5 CFU/mL for molds) was diluted in 25 mL of Tryptic Soy Broth (TSB) (for bacterial strains) or Potato Dextrose Broth (PDB) (for fungal strains) supplemented with 0.75% agar and poured into a Petri dish (90 mm diameter) until dried. The culture media of the suspension was prepared using TSB for bacterial cultures and peptone water (10% w/v) supplemented with 0.1% Tween 80 (w/w) for fungal cultures as it enhances spore dispersion. Subsequent to the drying process, wells were formed using a sterile 5 mL pipette. A volume of 80 µL of each peptide at a concentration of 2.5 mM was added to each well. Ampicillin (MilliporeSigma Canada Ltd., Oakville, ON, Canada), at a concentration of 256 µg/mL and natamycin (MilliporeSigma Canada Ltd., Oakville, ON, Canada) at 50 µg/mL, were used as positive controls for bacterial and fungal tests, respectively, as they are wide-spectrum antimicrobials. The solvent of the peptides was included as negative control in all experiments. […] Thereafter, inhibition halos were measured, and images were captured using a Biorad Chemidoc camera.

Test [2] deals with Rhodotorula mucilaginosa 27173. The class given is cell-based. The following applies: Figure 1 pictures A,B; peptides 2.5 mM, natamycin 50 µg/mL, 80 µL per well; 25 °C, 48 h. The protocol:
as §1

For test [3], the system named is Debaryomyces hansenii LL11042. The class given is cell-based. The note with it: 48 h. The protocol:
(§2) A microtitration assay was conducted to determine the minimum inhibitory concentration (MIC) of the peptides against the collection of indicator microorganisms. The growth medium used for the isolated bacterial and fungal strains was TSB and PDB, respectively. In brief, 175 µL of the culture medium was added to the wells of column 1 (negative growth control) and 125 µL to the wells of columns 2–12. Subsequently, 125 µL of each peptide (stock concentration of 2.5 mM), positive control (stock concentration of 256 µg/mL for ampicillin in bacterial tests and 50 µg/mL for natamycin in fungal tests) and negative control (10% DMSO in H2O (v/v)) were added to the wells in column 3 and mixed by pipetting up and down 10 times. A total of 125 µL from column 3 was removed and transferred to column 4, where serial dilutions were performed until the final dilution reached column 12. The final volume was then discarded. […] Subsequently, 50 µL of the indicator strain suspension (at a concentration of 10^5 CFU/mL for yeasts and bacteria and 10^4 CFU/mL for molds) was introduced to all the wells, except for column 1. The culture medium used for culture suspension was identical to that employed in the agar well diffusion method. The microplate was incubated for 24 h at 37 °C for bacterial isolates and for 48 h at 25 °C for fungal isolates.
(§3) The minimal bactericidal/fungicidal concentration (MBC/MFC) was calculated by transferring 10 µL of the wells where no growth could be detected to agar plates (TSA for bacterial isolates and Dichloran Rose Bengal Chloramphenicol Agar (DBRC)) (BD Difco Laboratories, Sparks, MD, USA). After incubation (24 h, 37 °C for bacteria and 48 h, 25 °C, for fungi), the peptide concentration with which no growth was observed, was considered to be the MBC/MFC. The MBC/MIC and MFC/MIC ratios were calculated in order to ascertain the effect of the peptides. A ratio of ≤4 is indicative of bactericidal/fungicidal efficacy, whereas a ratio of >4 indicates bacteriostatic/fungistatic activity.

In a further test the test system is Eurotium rubrum 3071.14a. The format is cell-based. The note with it: 48 h. The protocol:
as §2, §3

The next test concerns Mucor racemosus LMA-722. The format is cell-based. The note with it: 48 h. The protocol: as §2, §3
Test [4] deals with Paecilomyces spp. 5332-9a. The format is cell-based. The following applies: 48 h. The protocol: as §2, §3
The test system of test [5] is Penicillium chrysogenum LMA-212. The format is cell-based. The note with it: 48 h. The protocol:
as §2, §3

Test [6] has as its system Rhodotorula mucilaginosa 27173. The class given is cell-based. The note with it: 48 h. How it is done:
as §2, §3

For another test, the system named is C. guilliermondii 27168. The class given is cell-based, Candida guilliermondii. The note with it: 48 h. The protocol:
(§4) A microtitration assay was conducted to determine the minimum inhibitory concentration (MIC) of the peptides against the collection of indicator microorganisms. The growth medium used for the isolated bacterial and fungal strains was TSB and PDB, respectively. In brief, 175 µL of the culture medium was added to the wells of column 1 (negative growth control) and 125 µL to the wells of columns 2–12. Subsequently, 125 µL of each peptide (stock concentration of 2.5 mM), positive control (stock concentration of 256 µg/mL for ampicillin in bacterial tests and 50 µg/mL for natamycin in fungal tests) and negative control (10% DMSO in H2O (v/v)) were added to the wells in column 3 and mixed by pipetting up and down 10 times. A total of 125 µL from column 3 was removed and transferred to column 4, where serial dilutions were performed until the final dilution reached column 12. The final volume was then discarded. […]
(§5) The minimal bactericidal/fungicidal concentration (MBC/MFC) was calculated by transferring 10 µL of the wells where no growth could be detected to agar plates (TSA for bacterial isolates and Dichloran Rose Bengal Chloramphenicol Agar (DBRC)) (BD Difco Laboratories, Sparks, MD, USA). […] The MBC/MIC and MFC/MIC ratios were calculated in order to ascertain the effect of the peptides. […]

For the next test, the system named is A. versicolor LMA-370. The format is cell-based, Aspergillus versicolor. The following applies: 48 h. How it is done:
as §2, §3

The test system of another test is P. commune 27163. The class given is cell-based, Penicillium commune. The following applies: 48 h. The protocol:
as §4, §5

Consider `C[C@@H]1C/C=C/C=C/C=C/C=C/[C@H](O[C@@H]2O[C@H](C)[C@@H](O)[C@H](N)[C@@H]2O)C[C@@H]2O[C@](O)(C[C@@H](O)C[C@H]3O[C@@H]3/C=C/C(=O)O1)C[C@H](O)[C@H]2C(=O)O` [Natamycin, natamycin], for which the “inhibition halo (qualitative)” value in [1] and in [2] was “Clear inhibition halos” each time.

In the case of FQKVVAGVANALAHKYH [Pep5], in test [3], the “MFC, Debaryomyces hansenii” value was 156 ± 0 µM and the “MIC, Debaryomyces hansenii” value stood at 156 ± 0 µM. In the test with Eurotium rubrum 3071.14a, the “MFC, Eurotium rubrum” value stood at 78 ± 0 µM and the “MIC, Eurotium rubrum” value is 39 ± 0 µM. Moreover, in the test with Mucor racemosus LMA-722, the “MFC, Mucor racemosus” value amounted to 312 ± 0 µM and the “MIC, Mucor racemosus” value was determined as 312 ± 0 µM. In test [4], the “MFC, Activity Against Paecilomyces spp.” value is 9 ± 0 µM and the “MIC, Activity Against Paecilomyces spp.” value was determined as 9 ± 0 µM. Also, in test [5], the “MIC, Penicillium chrysogenum” value turned out to be 312 ± 0 µM. Besides, in [6], the “MFC, Activity Against R. mucilaginosa” value worked out at 78 ± 0 µM and the “MIC, Activity Against R. mucilaginosa” value was found to be 39 ± 0 µM. In the test on C. guilliermondii 27168, the “MFC, Candida guilliermondii” value was found to be 625 ± 0 µM and the “MIC, Candida guilliermondii” value was found to be 312 ± 0 µM. Besides, in the test on A. versicolor LMA-370, the “MFC, Aspergillus versicolor” value was found to be 78 ± 0 µM and the “MIC, Aspergillus versicolor” value turned out to be 39 ± 0 µM. Besides, in the test on P. commune 27163, the “MFC, Penicillium commune” value was determined as 312 ± 0 µM and the “MIC, Penicillium commune” value amounted to 312 ± 0 µM.

With FRLLGNVIVVV [Pep4], the “MIC, Debaryomyces hansenii” value in test [3] was found to be 312 ± 0 µM. Further, the “MIC, Eurotium rubrum” value in the test on Eurotium rubrum 3071.14a was determined as 312 ± 0 µM. Further, in test [4], the “MFC, Activity Against Paecilomyces spp.” value amounted to 625 ± 0 µM and the “MIC, Activity Against Paecilomyces spp.” value was found to be 625 ± 0 µM. Moreover, in test [5], the “MIC, Penicillium chrysogenum” value was determined as 156 ± 0 µM. The “MIC, Activity Against R. mucilaginosa” value in test [6] is 375 µM. Moreover, the “MIC, Aspergillus versicolor” value with A. versicolor LMA-370 is 312 ± 0 µM.

Turning to LAHKYH [Pep15], the “MIC, Activity Against Paecilomyces spp.” value in test [4] is 1250 ± 0 µM. In [6], the “MFC, Activity Against R. mucilaginosa” value was 1250 ± 0 µM and the “MIC, Activity Against R. mucilaginosa” value is 1250 ± 0 µM.

For the compound NALAHKYH [Pep3], in test [4], the “MFC, Activity Against Paecilomyces spp.” value was 1250 ± 0 µM and the “MIC, Activity Against Paecilomyces spp.” value was 625 ± 0 µM. In addition, in test [6], the “MFC, Activity Against R. mucilaginosa” value worked out at 625 ± 0 µM and the “MIC, Activity Against R. mucilaginosa” value came out at 625 ± 0 µM.

With QKVVAGVANALAHKYH [Pep14], in test [4], the “MFC, Activity Against Paecilomyces spp.” value was 78 ± 0 µM and the “MIC, Activity Against Paecilomyces spp.” value came out at 78 ± 0 µM. Besides, in test [6], the “MFC, Activity Against R. mucilaginosa” value is 78 ± 0 µM and the “MIC, Activity Against R. mucilaginosa” value amounted to 78 ± 0 µM.
